According to patent US9617263B2, “Phenyl-triazolo-pyridine compounds” (Eli Lilly and Company, priority 2014, dated 2017):

Columns and labels:
PPARα = target: T1, PPARα (Homo sapiens, UniProt Q07869); test: Gal4 PPARα reporter (CTF) functional assay in CV1 cells; assay type: cell-based; settings: versus 10 μM PPAR agonist reference compound
T1 construct: expressed in transfected cells; host or cells: CV1 (African green monkey kidney)
T1 sequence (Q07869 239-466 limits assumed): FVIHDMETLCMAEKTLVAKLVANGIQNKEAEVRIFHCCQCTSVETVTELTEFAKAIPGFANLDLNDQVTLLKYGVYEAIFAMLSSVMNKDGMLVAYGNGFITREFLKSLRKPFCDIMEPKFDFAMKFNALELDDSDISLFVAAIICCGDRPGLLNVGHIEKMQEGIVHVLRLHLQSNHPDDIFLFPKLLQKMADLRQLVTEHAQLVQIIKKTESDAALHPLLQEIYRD
Description: (§1) Because GPR40 is known to be activated by ligands to PPARγ, exemplified compounds are examined in Gal4 PPARα, Gal4 PPARδ, and PPARγ reporter assays to determine the selectivity of exemplified compounds for PPAR receptors. CV1 cells, which are derived from the renal tissue of an African green monkey, are transfected with various receptor and reporter plasmids using Fugene. […] After 24 hours incubation with compounds, cells are lysed and luciferase activity is determined as a measure of receptor activation by luminescence. […] The maximum percent stimulation is determined versus maximum stimulation obtained with 10 μM of an appropriate PPAR agonist reference compound, 2-methyl-2-(4-{2-methyl-3-[2-(phenylcarbonyl)-4-(trifluoromethoxy)phenoxy]propoxy}phenoxy)propanoic acid. […] Efficacy was negative for PPARα, PPARδ, and PPARγ is detected with the compound of Example 1 when examined up to […] in the specific PPAR co-transfection (CTF) functional assays described above. […]

Male Balb/c mice = test: Intraperitoneal glucose tolerance test (IPGTT); assay type: in vivo, mouse
Description: To examine the ability of Examples 1 to 20 to activate GPR40 in-vivo resulting in desired glucose lowering efficacy, i.e. reduction in plasma glucose levels, an intraperitoneal glucose tolerance test (ipGTT) study is completed, and the data is shown for the compound tested below.
Male Balb/c (Albino mice) mice (8-9 weeks of age) are single housed, and fed with normal rodent chow diet and water ad libitum. Animals are weighed; randomized by body weight; and their daily body weights are recorded. Animals are dosed daily using a formulation carrying methylcellulose and tween-80. On the night before the study, animals are fasted. In the morning, animals are dosed orally with compound or vehicle alone 60 minutes prior to the glucose tolerance test (glucose 2 g/kg, i.p.). Blood glucose levels are determined from tail bleeds taken at 0, 3, 7, 15, 30, and 60 min after glucose challenge. […] Percent lowering in glucose is calculated from the AUC data of the compound with respect to the AUC of vehicle group. The test compound is orally administered at 0.3, 1.0, 3.0, 10, 30, or 100 mg/kg, and a positive control (3-[4-(2-methyl-benzyloxy)-phenyl]-hex-4-ynoic acid, see WO2005086661 (TAK875).) is administered at 10 mg/kg. […] Glucose levels are lowered at the 30, and 60 minute time points for the positive control.

PPARδ = target: T2, PPARδ (Homo sapiens, UniProt Q03181); test: Gal4 PPARδ reporter (CTF) functional assay in CV1 cells; assay type: cell-based; settings: examined up to 10 M; versus 10 μM PPAR agonist reference compound
T2 construct: expressed in transfected cells; host or cells: CV1 (African green monkey kidney)
T2 sequence (Q03181 211-439 limits assumed): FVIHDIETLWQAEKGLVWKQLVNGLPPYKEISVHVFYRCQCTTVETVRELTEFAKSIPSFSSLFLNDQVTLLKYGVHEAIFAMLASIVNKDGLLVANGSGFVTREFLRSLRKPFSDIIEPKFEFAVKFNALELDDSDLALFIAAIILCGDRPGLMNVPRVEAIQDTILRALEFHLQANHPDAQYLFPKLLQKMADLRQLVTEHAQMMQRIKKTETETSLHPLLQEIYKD
Description: as §1

human GPR40 (hGPR40) = target: T3, human GPR40 (hGPR40) (Homo sapiens, UniProt O14842); test: Radioligand competition binding with [3H]TAK-875, HEK293 membranes; settings: 5 nM [3H]TAK-875; Cheng-Prusoff; Mean±SEM
T3 construct: expressed in transfected cells; host or cells: HEK293 (membranes)
T3 sequence (O14842 whole entry): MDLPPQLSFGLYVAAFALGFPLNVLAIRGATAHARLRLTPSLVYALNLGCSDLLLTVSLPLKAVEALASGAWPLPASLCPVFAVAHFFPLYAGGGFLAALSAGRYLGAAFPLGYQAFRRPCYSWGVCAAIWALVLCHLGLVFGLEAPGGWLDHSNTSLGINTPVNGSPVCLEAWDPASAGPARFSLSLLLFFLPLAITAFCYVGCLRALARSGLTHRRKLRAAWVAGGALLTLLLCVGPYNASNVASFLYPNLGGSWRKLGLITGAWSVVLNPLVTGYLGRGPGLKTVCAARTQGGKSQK
Text: Competition curves are plotted as the percent specific inhibition versus concentration of compound and analyzed using a four parameter nonlinear regression fit with variable slope. […] See Cheng, Y. and Prusoff, W. H. (1973) “Relationship between the inhibition constant (Ki) and the concentration of inhibitor which causes 50 percent inhibition (IC50) of an enzymatic reaction,” Biochem Pharmacol 22(23):3099-3108. (Mean±SEM; SEM=standard error of the mean.).

Zucker fa/fa rats = test: Acute oral glucose tolerance test (OGTT); assay type: in vivo, rat
Description: OGTTs are performed in Zucker fa/fa rats, a rodent model of insulin resistance, after 1 and 21 days of orally administered material at 1.0, 3.0 and 10 mg/kg. TAK875 at 1 mg/kg served as the positive control. The OGTTs are performed one hour post compound administration with blood samples taken for determination of glucose and insulin levels at 10, 20, 40, 60, and 120 minutes post glucose administration.

Q: What does the source list for `CC#C[C@@H](CC(=O)O)c1ccc(OCc2cc(-c3ccccc3C)cn3ncnc23)cc1` [Example 1, (S)-3-[4-(6-o-Tolyl-[1,2,4]triazolo[1,5-a]pyridin-8-ylmethoxy)-phenyl]-hex-4-ynoic acid]?
A: Efficacy for PPARα (PPARα): negative (Efficacy of <20% is considered negative); Glucose levels compared to vehicle control (Male Balb/c mice; 30 and 60 minute time points, Example 1 at 10, 30, 100 mg/kg oral, positive control 10 mg/kg): significantly lowered; ED50 (Male Balb/c mice; Mus musculus, oral, 60 min before glucose 2 g/kg i.p., read-out: ED50 based on AUCs for glucose lowering): 7.9 mg/kg; Efficacy for PPARδ (PPARδ): negative (Efficacy of <20% is considered negative); Ki (human GPR40 (hGPR40)): 24.6 nM; ED90 for glucose lowering (Zucker fa/fa rats; oral): 3.3 mg/kg; Insulin AUCs during the OGTTs (Zucker fa/fa rats; oral 1, 3, 10 mg/kg, values not statistically significant): dose dependent elevation; AUCs for glucose lowering (Zucker fa/fa rats; oral, Example 1 at 1, 3 and 10 mg/kg, TAK875 at 1 mg/kg, p<0.05): statistically significant
